According to article PMC8053501 (Diabetes, Metabolic Syndrome and Obesity: Targets and …, 2021):
“Also recorded” adds a separate entry of the source. Like-named read-outs stand apart in the source and are kept apart here. Blank lines part the entries; values can stand above or below the compound they belong to.

Columns and labels:
[1] = for Drug concentration, time course: normal mice, oral gavage, 3mg/kg
in vivo = details: male, ICR, mouse, po
[2] = test system: diabetes mellitus patients; assay: Acute kidney injury; assay type: in vivo, human; details: for Association with AKI, Unadjusted (95% CI) / Association with AKI, Adjusted (95% CI): metformin as reference; for Association with AKI, Adjusted (95% CI): multivariate; for Events During the 90 days (AKI): primary endpoint, first 90 days, patients above 55 years; for Total endpoint (AKI events): primary plus secondary endpoint; for Events at secondary end (AKI): secondary endpoint, after 90 days of hospital admission; for Total Percent (incidence rate of AKI at the end of the study): share of the 4966 total outcomes; for Association with AKI compared to control drug metformin, in words: multivariate analysis
[3] = Endpoint Diagnosis with 1047 Outcome
[4] = Secondary Diagnosis with 3919 Outcomes
[5] = 3 mg/kg, t1/2, mouse, oral gavage, Kidney
[6] = 3 mg/kg, t1/2, mouse, oral gavage, Liver
[7] = 3 mg/kg, t1/2, mouse, oral gavage, Plasma

Drug concentration, time course ([1]; Kidney, 0h): 9860
Drug concentration, time course ([1]; Kidney, 3h): 7320
Drug concentration, time course ([1]; Kidney, 6h): 5670
Drug concentration, time course ([1]; Kidney, 9h): 2340
Drug concentration, time course ([1]; Kidney, 12h): 730
Drug concentration, time course ([1]; Kidney, 15h): 60
Drug concentration, time course ([1]; Kidney, 18h): 0
Drug concentration, time course ([1]; Kidney, 21h): 0
Drug concentration, time course ([1]; Kidney, 24h): 0
Drug concentration, time course ([1]; Liver, 0h): 12,110
Drug concentration, time course ([1]; Liver, 3h): 8700
Drug concentration, time course ([1]; Liver, 6h): 5470
Drug concentration, time course ([1]; Liver, 9h): 1350
Drug concentration, time course ([1]; Liver, 12h): 200
Drug concentration, time course ([1]; Liver, 15h): 30
Drug concentration, time course ([1]; Liver, 18h): 0
Drug concentration, time course ([1]; Liver, 21h): 0
Drug concentration, time course ([1]; Liver, 24h): 0
Drug concentration, time course ([1]; Plasma, 0h): 370
Drug concentration, time course ([1]; Plasma, 3h): 80
Drug concentration, time course ([1]; Plasma, 6h): 45
Drug concentration, time course ([1]; Plasma, 9h): 0
Drug concentration, time course ([1]; Plasma, 12h): 0
Drug concentration, time course ([1]; Plasma, 15h): 0
Drug concentration, time course ([1]; Plasma, 18h): 0
Drug concentration, time course ([1]; Plasma, 21h): 0
Drug concentration, time course ([1]; Plasma, 24h): 0
Tmax (in vivo): 1 h
Tmax (in vivo; 3 mg/kg): 1 h
Cmax (in vivo; 3 mg/kg, oral gavage, Kidney): 4510 ng/mL
Cmax (in vivo; 3 mg/kg, oral gavage, Liver): 3980 ng/mL
Cmax (in vivo; 3 mg/kg, oral gavage, Plasma): 945 ng/mL
half-life (in vivo; 3 mg/kg, t1/2): 1.6 h
SMILES: CC1(C)S[C@@H]2[C@H](NC(=O)[C@H](N)c3ccc(O)cc3)C(=O)N2[C@H]1C(=O)O [Amoxicillin, amoxicillin]
Association with AKI, Unadjusted (95% CI) [2, 3]: 1.73 (1.16–1.85)
Association with AKI, Adjusted (95% CI) [2, 3]: 1.36 (1.06–1.54)
Association with AKI, Unadjusted (95% CI) [2, 4]: 1.17 (0.88–1.43)
Association with AKI, Adjusted (95% CI) [2, 4]: 1.34 (1.07–1.82)
Events During the 90 days (AKI) [2]: 48
Total endpoint (AKI events) [2]: 293
Events at secondary end (AKI) [2]: 245
Total Percent (incidence rate of AKI at the end of the study) [2]: 5.9%

Drug concentration, time course ([1]; Kidney, 0h): 0
Drug concentration, time course ([1]; Kidney, 3h): 10,340
Drug concentration, time course ([1]; Kidney, 6h): 8900
Drug concentration, time course ([1]; Kidney, 9h): 6480
Drug concentration, time course ([1]; Kidney, 12h): 2100
Drug concentration, time course ([1]; Kidney, 15h): 450
Drug concentration, time course ([1]; Kidney, 18h): 0
Drug concentration, time course ([1]; Kidney, 21h): 0
Drug concentration, time course ([1]; Kidney, 24h): 0
Drug concentration, time course ([1]; Liver, 0h): 0
Drug concentration, time course ([1]; Liver, 3h): 13,200
Drug concentration, time course ([1]; Liver, 6h): 9800
Drug concentration, time course ([1]; Liver, 9h): 6250
Drug concentration, time course ([1]; Liver, 12h): 2300
Drug concentration, time course ([1]; Liver, 15h): 400
Drug concentration, time course ([1]; Liver, 18h): 50
Drug concentration, time course ([1]; Liver, 21h): 0
Drug concentration, time course ([1]; Liver, 24h): 0
Drug concentration, time course ([1]; Plasma, 0h): 0
Drug concentration, time course ([1]; Plasma, 3h): 250
Drug concentration, time course ([1]; Plasma, 6h): 50
Drug concentration, time course ([1]; Plasma, 9h): 30
Drug concentration, time course ([1]; Plasma, 12h): 0
Drug concentration, time course ([1]; Plasma, 15h): 0
Drug concentration, time course ([1]; Plasma, 18h): 0
Drug concentration, time course ([1]; Plasma, 21h): 0
Drug concentration, time course ([1]; Plasma, 24h): 0
Tmax (in vivo): 0.5 h
Tmax (in vivo; 3 mg/kg): 0.5 h
Cmax (in vivo; 3 mg/kg, oral gavage, Kidney): 12100 ng/mL
Cmax (in vivo; 3 mg/kg, oral gavage, Liver): 11700 ng/mL
Cmax (in vivo; 3 mg/kg, oral gavage, Plasma): 983 ng/mL
half-life (in vivo; [5]): 4.5 h
half-life (in vivo; [6]): 3.6 h
half-life (in vivo; [7]): 2.4 h
SMILES: Cc1ccc(-c2cc(C(F)(F)F)nn2-c2ccc(S(N)(=O)=O)cc2)cc1 [Celecoxib, celecoxib]
Association with AKI, Unadjusted (95% CI) [2, 3]: 2.95 (2.68–3.25)
Association with AKI, Adjusted (95% CI) [2, 3]: 2.32 (2.12–2.68)
Association with AKI, Unadjusted (95% CI) [2, 4]: 1.87 (1.64–2.43)
Association with AKI, Adjusted (95% CI) [2, 4]: 1.86 (1.53–2.77)
Association with AKI compared to control drug metformin, in words [2]: increased rate of AKI; also recorded: higher risk for AKI
Events During the 90 days (AKI) [2]: 112
Total endpoint (AKI events) [2]: 533
Events at secondary end (AKI) [2]: 421
Total Percent (incidence rate of AKI at the end of the study) [2]: 10.72%

Drug concentration, time course ([1]; Kidney, 0h): 0
Drug concentration, time course ([1]; Kidney, 6h): 16,500
Drug concentration, time course ([1]; Kidney, 9h): 9500
Drug concentration, time course ([1]; Kidney, 12h): 3500
Drug concentration, time course ([1]; Kidney, 15h): 1000
Drug concentration, time course ([1]; Kidney, 18h): 200
Drug concentration, time course ([1]; Kidney, 21h): 100
Drug concentration, time course ([1]; Kidney, 24h): 0
Drug concentration, time course ([1]; Liver, 0h): 0
Drug concentration, time course ([1]; Liver, 3h): 9500
Drug concentration, time course ([1]; Liver, 6h): 7600
Drug concentration, time course ([1]; Liver, 9h): 1800
Drug concentration, time course ([1]; Liver, 12h): 600
Drug concentration, time course ([1]; Liver, 15h): 150
Drug concentration, time course ([1]; Liver, 18h): 0
Drug concentration, time course ([1]; Liver, 21h): 0
Drug concentration, time course ([1]; Liver, 24h): 0
Drug concentration, time course ([1]; Plasma, 0h): 0
Drug concentration, time course ([1]; Plasma, 3h): 600
Drug concentration, time course ([1]; Plasma, 6h): 400
Drug concentration, time course ([1]; Plasma, 9h): 140
Drug concentration, time course ([1]; Plasma, 12h): 0
Drug concentration, time course ([1]; Plasma, 15h): 0
Drug concentration, time course ([1]; Plasma, 18h): 0
Drug concentration, time course ([1]; Plasma, 21h): 0
Drug concentration, time course ([1]; Plasma, 24h): 0
Tmax (in vivo): 1 h
Tmax (in vivo; 3 mg/kg): 1 h
SMILES: CC(C)Cc1ccc(C(C)C(=O)O)cc1 (stereo not shown) [Ibuprofen, ibuprofen]
Association with AKI, Unadjusted (95% CI) [2, 3]: 3.14 (2.87–3.74)
Association with AKI, Adjusted (95% CI) [2, 3]: 2.41 (1.91–2.54)
Association with AKI, Unadjusted (95% CI) [2, 4]: 2.68 (2.21–3.03)
Association with AKI, Adjusted (95% CI) [2, 4]: 2.36 (1.84–2.93)
Association with AKI compared to control drug metformin, in words [2]: higher risk for AKI
Association with AKI compared to control drug metformin, in words ([2]; listed as ibuprofen): increased rate of AKI
Events During the 90 days (AKI) [2]: 124
Events at secondary end (AKI) [2]: 433
Total Percent (incidence rate of AKI at the end of the study) [2]: 11.22%

Tmax determined from the drug concentration in kidney and plasma (and liver) ([1]; mouse, tissue not separated): 1 h
Drug concentration, time course ([1]; Kidney, 0h): 0
Drug concentration, time course ([1]; Kidney, 3h): 8240
Drug concentration, time course ([1]; Kidney, 6h): 5200
Drug concentration, time course ([1]; Kidney, 9h): 3880
Drug concentration, time course ([1]; Kidney, 12h): 700
Drug concentration, time course ([1]; Kidney, 15h): 250
Drug concentration, time course ([1]; Kidney, 18h): 0
Drug concentration, time course ([1]; Kidney, 21h): 0
Drug concentration, time course ([1]; Kidney, 24h): 0
Drug concentration, time course ([1]; Liver, 0h): 0
Drug concentration, time course ([1]; Liver, 3h): 10,300
Drug concentration, time course ([1]; Liver, 6h): 8700
Drug concentration, time course ([1]; Liver, 9h): 5400
Drug concentration, time course ([1]; Liver, 12h): 1200
Drug concentration, time course ([1]; Liver, 15h): 150
Drug concentration, time course ([1]; Liver, 18h): 0
Drug concentration, time course ([1]; Liver, 21h): 0
Drug concentration, time course ([1]; Liver, 24h): 0
Drug concentration, time course ([1]; Plasma, 0h): 0
Drug concentration, time course ([1]; Plasma, 3h): 300
Drug concentration, time course ([1]; Plasma, 6h): 100
Drug concentration, time course ([1]; Plasma, 9h): 50
Drug concentration, time course ([1]; Plasma, 12h): 0
Drug concentration, time course ([1]; Plasma, 15h): 0
Drug concentration, time course ([1]; Plasma, 18h): 0
Drug concentration, time course ([1]; Plasma, 21h): 0
Drug concentration, time course ([1]; Plasma, 24h): 0
Tmax (in vivo; 3 mg/kg): 1 h
Cmax (in vivo; 3 mg/kg, oral gavage, Kidney): 10300 ng/mL
Cmax (in vivo; 3 mg/kg, oral gavage, Liver): 9650 ng/mL
Cmax (in vivo; 3 mg/kg, oral gavage, Plasma): 1170 ng/mL
half-life (in vivo; [5]): 3.8 h
half-life (in vivo; [6]): 3.1 h
half-life (in vivo; [7]): 2.7 h
SMILES: COc1ccc2c(c1)c(CC(=O)O)c(C)n2C(=O)c1ccc(Cl)cc1 [Indomethacin, indomethacin]
Association with AKI, Unadjusted (95% CI) [2, 3]: 2.81 (2.32–2.94)
Association with AKI, Adjusted (95% CI) [2, 3]: 2.29 (2.05–2.65)
Association with AKI, Unadjusted (95% CI) [2, 4]: 2.45(2.09–2.54)
Association with AKI, Adjusted (95% CI) [2, 4]: 2.63 (2.41–2.72)
Association with AKI compared to control drug metformin, in words [2]: increased rate of AKI; also recorded: higher risk for AKI
Events During the 90 days (AKI) [2]: 106
Total endpoint (AKI events) [2]: 497
Events at secondary end (AKI) [2]: 391
Total Percent (incidence rate of AKI at the end of the study) [2]: 10.01%
